Reference: patent US20220315895A1, “METHODS OF MAKING OLIGOPOTENT AND UNIPOTENT PRECURSORS” (Transfusion Health, LLC, priority 2019, published 2022)

Test system: CD34+ cells from cord blood
Assay: Expansion of cord blood CD34+ cells, seven-day culture (Example 35)
Format: cell-based, human
Conditions: normalized fold change days 1 to 7
Experimental: CD34+ cells from cord blood were purchased from STEMCELL Technologies. Primary human CD34+ cells were isolated from cord blood samples using positive immunomagnetic separation techniques. Cells were thawed and gradually brought to room temperature. Samples were washed, then placed in overnight culture in StemSpan with 100 ng/ml each of FLT3L, TPO, SCF, and TL-6. Eighteen to twenty-four hours later (day 1), cells were counted and immunophenotyped (flow cytometry on an Invitrogen Attune N×T cytometer).
Approximately 1000 live cells were plated into each well of 96-well plates; exact cell numbers dispensed per well were quantified with flow cytometry for later calculations.
Media for testing compounds of Formula I was prepared using Alpha MEM without phenol red, 10% (v/v) heat inactivated fetal bovine serum. Culture conditions also included an antibiotic solution that includes penicillin, streptomycin, and amphotericin B to avoid contamination. Additional media components and concentrations used for the compounds tested are described in Table 5.
All incubations for this experiment took place at 3% oxygen (controlled by nitrogen) and 5% CO2. Following seven days of culture, cells from wells were collected and phenotypes were analyzed (flow cytometry on an Invitrogen Attune N×T cytometer).
Table 6 below, summarizes the relative expansive effect of the screened compounds at the indicated concentration. The data in Table 6 is reported as the relative expansive effect. The relative expansive effect is a normalized value of the fold changes shown in each of the figures. It is calculated as shown below: […]

COC1c2ccccc2-c2ccc(NC(=O)C(C)(C)C)cc21 (centres unmarked) [Compound 1.025, N-(9-methoxy-9H-fluoren-2-yl)pivalamide]
CD90 effect (relative expansive effect on CD34+/CD133+/CD90+ cells) (sample compound 8 μM): ++++ (2.16 ≤ x < 2.52)
CD133 effect (relative expansive effect on CD34+/CD133+ cells) (sample compound 8 μM): +++ (1.8 ≤ x < 2.16)

CC(C)(C)C(=O)Nc1ccc2c(c1)C(C#N)c1ccccc1-2 (centres unmarked) [Compound 1.026, N-(9-cyano-9H-fluoren-2-yl)pivalamide]
CD90 effect (relative expansive effect on CD34+/CD133+/CD90+ cells) (sample compound 2 μM): ++ (1.44 ≤ x < 1.8)
CD133 effect (relative expansive effect on CD34+/CD133+ cells) (sample compound 2 μM): ++ (1.44 ≤ x < 1.8)

CC(=O)Oc1ccc2c(c1)C(=O)c1cc(OC(C)=O)ccc1-2 [Compound 1.027, 9-oxo-9H-fluorene-2,7-diyl diacetate]
CD90 effect (relative expansive effect on CD34+/CD133+/CD90+ cells) (sample compound 2 μM): ++ (1.44 ≤ x < 1.8)
CD133 effect (relative expansive effect on CD34+/CD133+ cells) (sample compound 2 μM): ++ (1.44 ≤ x < 1.8)

CC(C)(C)C(=O)Nc1ccc2c(c1)/C(=N\O)c1ccccc1-2 [Compound 1.028, N-(9-(hydroxyimino)-9H-fluoren-2-yl)pivalamide]
CD90 effect (relative expansive effect on CD34+/CD133+/CD90+ cells) (sample compound 2 μM): +++ (1.8 ≤ x < 2.16)
CD133 effect (relative expansive effect on CD34+/CD133+ cells) (sample compound 2 μM): +++ (1.8 ≤ x < 2.16)

CC(=O)Nc1ccc2c(c1)C(O)c1ccccc1-2 (centres unmarked) [Compound 1.029, N-(9-hydroxy-9H-fluoren-2-yl)acetamide]
CD90 effect (relative expansive effect on CD34+/CD133+/CD90+ cells) (sample compound 8 μM): ++++ (2.16 ≤ x < 2.52)
CD133 effect (relative expansive effect on CD34+/CD133+ cells) (sample compound 8 μM): ++++ (2.16 ≤ x < 2.52)

CC(C)(C)C(=O)Oc1ccc2c(c1)C(O)c1ccccc1-2 (centres unmarked) [Compound 1.030, 9-hydroxy-9H-fluoren-2-yl pivalate]
CD90 effect (relative expansive effect on CD34+/CD133+/CD90+ cells) (sample compound 10 μM): +++ (1.8 ≤ x < 2.16)
CD133 effect (relative expansive effect on CD34+/CD133+ cells) (sample compound 10 μM): +++ (1.8 ≤ x < 2.16)

O=C(Nc1ccc2c(c1)C(O)c1ccccc1-2)C1CCCCO1 (centres unmarked) [Compound 1.031, N-(9-hydroxy-9H-fluoren-2-yl)tetrahydro-2H-pyran-2-carboxamide]
CD90 effect (relative expansive effect on CD34+/CD133+/CD90+ cells) (sample compound 10 μM): ++ (1.44 ≤ x < 1.8)
CD133 effect (relative expansive effect on CD34+/CD133+ cells) (sample compound 10 μM): +++ (1.8 ≤ x < 2.16)

O=C(Nc1ccc2c(c1)C(O)c1ccccc1-2)c1ccc(O)cc1 (centres unmarked) [Compound 1.032, 4-hydroxy-N-(9-hydroxy-9H-fluoren-2-yl)benzamide]
CD90 effect (relative expansive effect on CD34+/CD133+/CD90+ cells) (sample compound 10 μM): ++ (1.44 ≤ x < 1.8)
CD133 effect (relative expansive effect on CD34+/CD133+ cells) (sample compound 10 μM): ++ (1.44 ≤ x < 1.8)

CN(C)C(=O)Nc1ccc2c(c1)C(O)c1ccccc1-2 (centres unmarked) [Compound 1.033, 3-(9-hydroxy-9H-fluoren-2-yl)-1,1-dimethylurea]
CD90 effect (relative expansive effect on CD34+/CD133+/CD90+ cells) (sample compound 10 μM): ++ (1.44 ≤ x < 1.8)
CD133 effect (relative expansive effect on CD34+/CD133+ cells) (sample compound 10 μM): +++ (1.8 ≤ x < 2.16)

O=C(Nc1ccc2c(c1)C(O)c1ccccc1-2)C(Cl)(Cl)Cl (centres unmarked) [Compound 1.034, 2,2,2-trichloro-N-(9-hydroxy-9H-fluoren-2-yl)acetamide]
CD90 effect (relative expansive effect on CD34+/CD133+/CD90+ cells) (sample compound 10 μM): +++++ (2.52 ≤ x)
CD133 effect (relative expansive effect on CD34+/CD133+ cells) (sample compound 10 μM): +++++ (2.52 ≤ x)

Nc1ccc2c(c1)C(=O)c1ccccc1-2 [Compound 1.035]
CD90 effect (relative expansive effect on CD34+/CD133+/CD90+ cells) (sample compound 10 μM): +++ (1.8 ≤ x < 2.16)
CD133 effect (relative expansive effect on CD34+/CD133+ cells) (sample compound 10 μM): +++ (1.8 ≤ x < 2.16)

O=C1c2ccccc2-c2ccc([N+](=O)[O-])cc21 [Compound 1.036]
CD90 effect (relative expansive effect on CD34+/CD133+/CD90+ cells) (sample compound 10 μM): +++ (1.8 ≤ x < 2.16)
CD133 effect (relative expansive effect on CD34+/CD133+ cells) (sample compound 10 μM): ++ (1.44 ≤ x < 1.8)

O=C1c2ccccc2-c2ccccc21 [Compound 1.037]
CD90 effect (relative expansive effect on CD34+/CD133+/CD90+ cells) (sample compound 10 μM): ++ (1.44 ≤ x < 1.8)
CD133 effect (relative expansive effect on CD34+/CD133+ cells) (sample compound 10 μM): + (x < 1.44)
